Laboratory results from ChEMBL document CHEMBL3885881, “DrugMatrix”.

Organism: Rattus norvegicus
Test: DrugMatrix - Regimen: Daily Repeat
Format: toxicity, organism-based, Sprague-Dawley
Parameters: regimen Daily Repeat, gender Male, age 6-8 weeks
Conditions: in vivo, po, route oral GAVAGE, […]; for ABSOLUTE BASOPHIL / ABSOLUTE EOSINOPHIL / ABSOLUTE LYMPHOCYTE / ABSOLUTE MONOCYTE / ABSOLUTE SEGMENTED NEUTROPHIL / BASOPHIL / EOSINOPHIL / ERYTHROCYTE COUNT / HEMATOCRIT / HEMOGLOBIN / LEUKOCYTE COUNT / LYMPHOCYTE / MEAN CORPUSCULAR HEMOGLOBIN / MEAN CORPUSCULAR HEMOGLOBIN CONCENTRATION / MEAN CORPUSCULAR VOLUME / MONOCYTE / NEUTROPHIL / NUCLEATED RED BLOOD CELLS / PLATELET COUNT: tissue Blood; for ALANINE AMINOTRANSFERASE / ALBUMIN / ALKALINE PHOSPHATASE / ASPARTATE AMINOTRANSFERASE / BLOOD UREA NITROGEN / CARBON DIOXIDE / CHLORIDE / CHOLESTEROL / CREATINE PHOSPHOKINASE / CREATININE / GLUCOSE / LACTATE DEHYDROGENASE / LIPASE / PHOSPHORUS / POTASSIUM / SODIUM / TOTAL BILIRUBIN / TOTAL PROTEIN / URIC ACID: tissue Plasma
[1] = 0 mg/kg, 72 h, dose level Control, time 3 day
[2] = 0 mg/kg, 120 h, dose level Control, time 5 day
[3] = 300 mg/kg, 72 h, dose level High, time 3 day

Structure (SMILES): CC(C)c1c(C(=O)Nc2ccccc2)c(-c2ccccc2)c(-c2ccc(F)cc2)n1CC[C@@H](O)C[C@@H](O)CC(=O)O [ATORVASTATIN]
- ABSOLUTE BASOPHIL [1]: 0 CELLS/uL
- ABSOLUTE EOSINOPHIL [1]: 14 CELLS/uL
- ABSOLUTE LYMPHOCYTE [1]: 11144.67 CELLS/uL
- ABSOLUTE MONOCYTE [1]: 22.5 CELLS/uL
- ABSOLUTE SEGMENTED NEUTROPHIL [1]: 535.5 CELLS/uL
- BASOPHIL [1]: 0%
- EOSINOPHIL [1]: 0.17%
- ERYTHROCYTE COUNT [1]: 5.08 x10E6/uL
- HEMATOCRIT [1]: 32.32%
- HEMOGLOBIN [1]: 12.87 G/DL
- LEUKOCYTE COUNT [1]: 11.72 x10E3/uL
- LYMPHOCYTE [1]: 94.67%
- MEAN CORPUSCULAR HEMOGLOBIN [1]: 25.37 pg
- MEAN CORPUSCULAR HEMOGLOBIN CONCENTRATION [1]: 39.85 G/DL
- MEAN CORPUSCULAR VOLUME [1]: 63.58 fL
- MONOCYTE [1]: 0.17%
- NEUTROPHIL [1]: 5%
- NUCLEATED RED BLOOD CELLS [1]: 0 /100WBC
- PLATELET COUNT [1]: 1084 x10E3/uL
- ALANINE AMINOTRANSFERASE [1]: 67.5 u/L
- ALBUMIN [1]: 4.02 G/DL
- ALKALINE PHOSPHATASE [1]: 374.17 u/L
- ASPARTATE AMINOTRANSFERASE [1]: 83.5 u/L
- BLOOD UREA NITROGEN [1]: 14.5 mg/dL
- CARBON DIOXIDE [1]: 30 mmol/L
- CHLORIDE [1]: 100.5 MEQ/L
- CHOLESTEROL [1]: 71.33 mg/dL
- CREATINE PHOSPHOKINASE [1]: 268.33 u/L
- CREATININE [1]: 0.16 mg/dL
- GLUCOSE [1]: 170.5 mg/dL
- LACTATE DEHYDROGENASE [1]: 81.17 u/L
- LIPASE [1]: 16.67 u/L
- PHOSPHORUS [1]: 10.07 mg/dL
- POTASSIUM [1]: 5.03 MEQ/L
- SODIUM [1]: 142.92 MEQ/L
- TOTAL BILIRUBIN [1]: 0.17 mg/dL
- TOTAL PROTEIN [1]: 5.63 G/DL
- URIC ACID [1]: 0.5 mg/dL
- ABSOLUTE BASOPHIL [2]: 0 CELLS/uL
- ABSOLUTE EOSINOPHIL [2]: 37.5 CELLS/uL
- ABSOLUTE LYMPHOCYTE [2]: 8049.5 CELLS/uL
- ABSOLUTE MONOCYTE [2]: 82.83 CELLS/uL
- ABSOLUTE SEGMENTED NEUTROPHIL [2]: 646.83 CELLS/uL
- BASOPHIL [2]: 0%
- EOSINOPHIL [2]: 0.5%
- ERYTHROCYTE COUNT [2]: 5.36 x10E6/uL
- HEMATOCRIT [2]: 33.9%
- HEMOGLOBIN [2]: 13.02 G/DL
- LEUKOCYTE COUNT [2]: 8.82 x10E3/uL
- LYMPHOCYTE [2]: 90.17%
- MEAN CORPUSCULAR HEMOGLOBIN [2]: 24.32 pg
- MEAN CORPUSCULAR HEMOGLOBIN CONCENTRATION [2]: 38.42 G/DL
- MEAN CORPUSCULAR VOLUME [2]: 63.32 fL
- MONOCYTE [2]: 1.17%
- NEUTROPHIL [2]: 8.17%
- NUCLEATED RED BLOOD CELLS [2]: 0.17 /100WBC
- PLATELET COUNT [2]: 1231.5 x10E3/uL
- ALANINE AMINOTRANSFERASE [2]: 62 u/L
- ALBUMIN [2]: 3.97 G/DL
- ALKALINE PHOSPHATASE [2]: 303.67 u/L
- ASPARTATE AMINOTRANSFERASE [2]: 84.5 u/L
- BLOOD UREA NITROGEN [2]: 14.83 mg/dL
- CARBON DIOXIDE [2]: 31.83 mmol/L
- CHLORIDE [2]: 97 MEQ/L
- CHOLESTEROL [2]: 68.83 mg/dL
- CREATINE PHOSPHOKINASE [2]: 411.33 u/L
- CREATININE [2]: 0.16 mg/dL
- GLUCOSE [2]: 170.17 mg/dL
- LACTATE DEHYDROGENASE [2]: 88.5 u/L
- LIPASE [2]: 9.5 u/L
- PHOSPHORUS [2]: 9.98 mg/dL
- POTASSIUM [2]: 5.72 MEQ/L
- SODIUM [2]: 141.62 MEQ/L
- TOTAL BILIRUBIN [2]: 0.1 mg/dL
- TOTAL PROTEIN [2]: 5.67 G/DL
- URIC ACID [2]: 0.52 mg/dL
- ABSOLUTE BASOPHIL [3]: 0 CELLS/uL
- ABSOLUTE EOSINOPHIL [3]: 88 CELLS/uL
- ABSOLUTE LYMPHOCYTE [3]: 7063.33 CELLS/uL
- ABSOLUTE MONOCYTE [3]: 150.67 CELLS/uL
- ABSOLUTE SEGMENTED NEUTROPHIL [3]: 964.67 CELLS/uL
- BASOPHIL [3]: 0%
- EOSINOPHIL [3]: 1%
- ERYTHROCYTE COUNT [3]: 5.19 x10E6/uL
- HEMATOCRIT [3]: 32.23%
- HEMOGLOBIN [3]: 12.9 G/DL
- LEUKOCYTE COUNT [3]: 8.27 x10E3/uL
- LYMPHOCYTE [3]: 86%
- MEAN CORPUSCULAR HEMOGLOBIN [3]: 24.93 pg
- MEAN CORPUSCULAR HEMOGLOBIN CONCENTRATION [3]: 40.13 G/DL
- MEAN CORPUSCULAR VOLUME [3]: 62.1 fL
- MONOCYTE [3]: 1.67%
- NEUTROPHIL [3]: 11.33%
- NUCLEATED RED BLOOD CELLS [3]: 0 /100WBC
- PLATELET COUNT [3]: 924.33 x10E3/uL
- ALANINE AMINOTRANSFERASE [3]: 226.67 u/L
- ALBUMIN [3]: 4.2 G/DL
- ALKALINE PHOSPHATASE [3]: 729 u/L
- ASPARTATE AMINOTRANSFERASE [3]: 518.67 u/L
- BLOOD UREA NITROGEN [3]: 15 mg/dL
- CARBON DIOXIDE [3]: 26.33 mmol/L
- CHLORIDE [3]: 103 MEQ/L
- CHOLESTEROL [3]: 70.67 mg/dL
- CREATINE PHOSPHOKINASE [3]: 416.67 u/L
- CREATININE [3]: 0.17 mg/dL
- GLUCOSE [3]: 160 mg/dL
- LACTATE DEHYDROGENASE [3]: 414.67 u/L
- LIPASE [3]: 12 u/L
- PHOSPHORUS [3]: 10 mg/dL
- POTASSIUM [3]: 4.92 MEQ/L
- SODIUM [3]: 144.23 MEQ/L
- TOTAL BILIRUBIN [3]: 0.37 mg/dL
- TOTAL PROTEIN [3]: 5.67 G/DL
- URIC ACID [3]: 0.67 mg/dL
